Values joined by “and” are separate entries in the source; they are usually repeats but may differ in a detail not shown here. Equal values may be shown once.
How the values were obtained:
[1] = molecular target: T1, G2019S-LRRK2 (recombinant GST-LRRK2 delta970) (Homo sapiens, UniProt Q5S007, G2019S); test: LRRK2 kinase assay, G2019S mutant (32P radiometric, peptide substrate); type: biochemical; settings: G2019S-LRRK2 30 nM, ATP ~52 μM (Km), 30 min at 30° C.
T1 construct: Recombinant GST-LRRK2 (delta970); GST (N); host or cells: baculovirus-infected Sf9 insect cells
T1 sequence (Q5S007 970-2527 G2019S limits assumed): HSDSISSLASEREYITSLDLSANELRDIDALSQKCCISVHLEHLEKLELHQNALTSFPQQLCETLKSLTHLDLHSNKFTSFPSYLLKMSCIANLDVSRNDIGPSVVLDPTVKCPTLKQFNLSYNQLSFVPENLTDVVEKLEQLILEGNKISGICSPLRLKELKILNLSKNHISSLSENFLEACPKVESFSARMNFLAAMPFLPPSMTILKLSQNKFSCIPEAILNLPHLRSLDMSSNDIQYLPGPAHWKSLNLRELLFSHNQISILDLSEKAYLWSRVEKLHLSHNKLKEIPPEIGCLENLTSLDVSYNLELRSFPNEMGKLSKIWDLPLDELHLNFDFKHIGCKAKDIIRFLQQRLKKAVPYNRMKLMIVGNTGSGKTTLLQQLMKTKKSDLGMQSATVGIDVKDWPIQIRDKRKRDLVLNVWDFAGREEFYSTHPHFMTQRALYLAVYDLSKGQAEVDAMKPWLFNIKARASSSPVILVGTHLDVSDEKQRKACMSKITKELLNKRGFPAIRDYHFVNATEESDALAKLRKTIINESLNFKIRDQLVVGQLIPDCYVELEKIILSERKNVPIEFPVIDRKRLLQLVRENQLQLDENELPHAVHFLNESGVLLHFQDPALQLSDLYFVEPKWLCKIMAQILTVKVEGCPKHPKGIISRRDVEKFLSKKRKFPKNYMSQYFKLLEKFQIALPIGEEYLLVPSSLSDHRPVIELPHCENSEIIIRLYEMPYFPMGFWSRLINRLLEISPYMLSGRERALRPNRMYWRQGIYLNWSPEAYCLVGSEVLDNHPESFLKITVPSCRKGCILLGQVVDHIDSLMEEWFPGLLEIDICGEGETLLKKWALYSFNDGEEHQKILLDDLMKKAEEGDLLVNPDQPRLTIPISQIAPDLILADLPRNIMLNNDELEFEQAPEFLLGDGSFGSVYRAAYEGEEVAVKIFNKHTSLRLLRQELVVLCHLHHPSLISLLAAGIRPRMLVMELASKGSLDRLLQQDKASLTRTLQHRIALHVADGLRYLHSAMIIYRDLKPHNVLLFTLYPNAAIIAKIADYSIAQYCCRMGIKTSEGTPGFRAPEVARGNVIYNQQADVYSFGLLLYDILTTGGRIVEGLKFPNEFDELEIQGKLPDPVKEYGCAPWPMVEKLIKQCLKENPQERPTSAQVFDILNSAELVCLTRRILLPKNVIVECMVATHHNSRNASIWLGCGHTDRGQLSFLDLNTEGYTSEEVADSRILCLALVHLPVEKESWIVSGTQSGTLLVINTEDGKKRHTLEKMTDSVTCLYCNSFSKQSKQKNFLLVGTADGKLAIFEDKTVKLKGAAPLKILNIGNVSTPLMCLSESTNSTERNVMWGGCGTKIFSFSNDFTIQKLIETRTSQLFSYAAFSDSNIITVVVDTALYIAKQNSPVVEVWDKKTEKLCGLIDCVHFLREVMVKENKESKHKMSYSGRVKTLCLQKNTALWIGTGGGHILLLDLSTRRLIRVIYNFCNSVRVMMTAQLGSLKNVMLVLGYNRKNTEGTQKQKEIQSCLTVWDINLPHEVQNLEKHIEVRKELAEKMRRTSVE
Description: (§1) Compounds were assessed for inhibition of LRRK2 inhibition using the following procedure. Recombinant GST-LRRK2 (delta970) purified from baculovirus infected insect cells (SF9), at least 90% pure and either wild-type sequence or bearing the pathogenic G2019S mutation, was combined into a kinase buffer at 30 nM concentration. Kinase buffer consists of 50 mM Tris HCl pH 7.4, 1 mM EDTA, and 50 μM peptide substrate (amino acid sequence […]). Experimental compounds or control (no compound) were added at desired concentrations in DMSO and water, where final concentration of DMSO in kinase reactions was 0.1% for all drug concentrations. […] Reactions were incubated at 1400 RPM at 30° C. for 30 min. and then spotted in triplicate directly onto a slot-blot apparatus fitted with phospho-cellulose paper and allowed to dry. Each slot was then washed with 10 mM phosphoric acid buffer until beta-radiation could not be detected in eluted wash buffer, usually ˜1 mL per slot. Paper within each slot were excised and radiation measured by liquid scintillation.

[2] = molecular target: T2, WT-LRRK2 (recombinant GST-LRRK2 delta970) (Homo sapiens, UniProt Q5S007); test: LRRK2 kinase assay, wild type (32P radiometric, peptide substrate); type: biochemical; settings: WT-LRRK2 30 nM, ATP ~92 μM (Km), 30 min at 30° C.
T2 construct: Recombinant GST-LRRK2 (delta970); GST (N); host or cells: baculovirus-infected Sf9 insect cells
T2 sequence (Q5S007 970-2527 limits assumed): as the sequence (Q5S007 970-2527 G2019S limits assumed) above, with S1050G counted along it
Description: as §1

| Compound | IC50 [1] | IC50 [2] |
| --- | --- | --- |
| CC(C)n1cc(Nc2nc(N[C@@H](C)c3ccccc3)c3cc[nH]c3n2)cn1 [Compound 22, (S)-N2-(1-isopropyl-1H-pyrazol-4-yl)-N4-(1-phenylethyl)-7H-pyrrolo[2,3-d]pyrimidine-2,4-diamine] | 0.056 µM | 0.037 µM |
| CC(C)n1cc(Nc2nc(N[C@@H](C)C3CCC3)c3cc[nH]c3n2)cn1 [Compound 42, (S)-N4-(1-cyclobutylethyl)-N2-(1-isopropyl-1H-pyrazol-4-yl)-7H-pyrrolo[2,3-d]pyrimidine-2,4-diamine] | 0.078 µM | 0.067 µM |
| C[C@H](Nc1nc(Nc2cn([C@H](C)CO)nn2)nc2[nH]ccc12)C1CC1 [Compound 55, (R)-2-(4-((4-(((S)-1-cyclopropylethyl)amino)-7H-pyrrolo[2,3-d]pyrimidin-2-yl)amino)-1H-1,2,3-triazol-1-yl)propan-1-ol] | 0.013 µM and 0.032 µM | 0.009 µM and 0.019 µM |
| C[C@H](Nc1nc(Nc2cn(C3CCOC3)nn2)nc2[nH]ccc12)C1CC1 (stereo in doubt) [Compound 50, N4-((S)-1-cyclopropylethyl)-N2-(1-((S)-tetrahydrofuran-3-yl)-1H-1,2,3-triazol-4-yl)-7H-pyrrolo[2,3-d]pyrimidine-2,4-diamine] | 0.061 µM | 0.04 µM |
| CNC(=O)C(C)n1cc(Nc2nc(N[C@@H](C)C3CC3)c3cc[nH]c3n2)c(Cl)n1 (stereo partly drawn) [Compound 46, 2-(3-chloro-4-((4-(((S)-1-cyclopropylethyl)amino)-7H-pyrrolo[2,3-d]pyrimidin-2-yl)amino)-1H-pyrazol-1-yl)-N-methylpropanamide] | 0.017 µM | 0.012 µM |
| COCC(C)n1cc(Nc2nc(N[C@@H](C)C3CC3)c3cc[nH]c3n2)cn1 (stereo partly drawn) [Compound 34, N4-((S)-1-cyclopropylethyl)-N2-(1-(1-methoxypropan-2-yl)-1H-pyrazol-4-yl)-7H-pyrrolo[2,3-d]pyrimidine-2,4-diamine] | 0.015 µM | 0.011 µM |
| C[C@H](Nc1nc(Nc2cn([C@H]3CCOC3)nn2)nc2[nH]ccc12)C1CC1 [Compound 51, N4-((S)-1-cyclopropylethyl)-N2-(1-((S)-tetrahydrofuran-3-yl)-1H-1,2,3-triazol-4-yl)-7H-pyrrolo[2,3-d]pyrimidine-2,4-diamine] | 0.102 µM | 0.066 µM |
| COCCn1cc(Nc2nc(N[C@@H](C)C3CC3)c3cc[nH]c3n2)nn1 [Compound 39, (S)-N4-(1-cyclopropylethyl)-N2-(1-(2-methoxyethyl)-1H-1,2,3-triazol-4-yl)-7H-pyrrolo[2,3-d]pyrimidine-2,4-diamine] | 0.058 µM and 0.113 µM and 0.088 µM |  |
| Cc1c(Nc2nc(N[C@H]3CCc4ccccc43)c3cc[nH]c3n2)cnn1C(C)C(=O)N1CCN(C)CC1 (stereo partly drawn) [Compound 18, 2-(4-((4-(((S)-2,3-dihydro-1H-inden-1-yl)amino)-7H-pyrrolo[2,3-d]pyrimidin-2-yl)amino)-5-methyl-1H-pyrazol-1-yl)-1-(4-methylpiperazin-1-yl)propan-1-one] | 0.049 µM | 0.037 µM |
| CC(C)n1cc(Nc2nc(NC3CCC3)c3cc[nH]c3n2)cn1 [Compound 8, N4-cyclobutyl-N2-(1-isopropyl-1H-pyrazol-4-yl)-7H-pyrrolo[2,3-d]pyrimidine-2,4-diamine] | 0.009 µM | 0.005 µM |
| Cc1c(Nc2nc(N[C@@H](C)c3ccccc3)c3cc[nH]c3n2)cnn1C(C)C [Compound 24, (S)-N2-(1-isopropyl-5-methyl-1H-pyrazol-phenylethyl)-7H-pyrrolo[2,3-d]pyrimidine-2,4-diamine] | 0.063 µM | 0.055 µM |
| CC(C)n1cc(Nc2nc(N[C@@H](C)C3CC3)c3nc[nH]c3n2)cn1 [Compound 12, (S)-N6-(1-cyclopropylethyl)-N2-(1-isopropyl-1H-pyrazol-4-yl)-9H-purine-2,6-diamine] | 0.022 µM | 0.01 µM |
| CC(O)Cn1cc(Nc2nc(N[C@@H](C)C3CC3)c3cc[nH]c3n2)nn1 (stereo partly drawn) [Compound 54, 1-(4-((4-(((S)-1-cyclopropylethyl)amino)-7H-pyrrolo[2,3-d]pyrimidin-2-yl)amino)-1H-1,2,3-triazol-1-yl)propan-2-ol] | 0.027 µM | 0.021 µM |
| CC(C)n1cc(Nc2nc(NC3CCC3)c3nc[nH]c3n2)cn1 [Compound 13, N6-cyclobutyl-N2-(1-isopropyl-1H-pyrazol-4-yl)-9H-purine-2,6-diamine] | 0.015 µM | 0.007 µM |
| Cc1cc(Nc2nc(N[C@@H](C)C3CC3)c3nc[nH]c3n2)n[nH]1 [Compound 10, (S)-N6-(1-cyclopropylethyl)-N2-(5-methyl-1H-pyrazol-3-yl)-9H-purine-2,6-diamine] | 0.048 µM | 0.019 µM |
| C[C@H](Nc1nc(Nc2cn(C3COC3)nn2)nc2[nH]ccc12)C1CC1 [Compound 56, (S)-N4-(1-cyclopropylethyl)-N2-(1-(oxetan-3-yl)-1H-1,2,3-triazol-4-yl)-7H-pyrrolo[2,3-d]pyrimidine-2,4-diamine] | 0.115 µM | 0.073 µM |

| Compound | IC50 [1] | IC50 [2] |
| --- | --- | --- |
| COCc1cc(Nc2nc(N[C@@H](C)C3CC3)c3cc[nH]c3n2)n[nH]1 [Compound 61, (S)-N4-(1-cyclopropylethyl)-N2-(5-(methoxymethyl)-1H-pyrazol-3-yl)-7H-pyrrolo[2,3-d]pyrimidine-2,4-diamine] | 0.099 µM | 0.064 µM |
| Cc1c(Nc2nc(N[C@@H](C)C3CCCCC3)c3cc[nH]c3n2)cnn1C(C)C [Compound 25, (S)-N4-(1-cyclohexylethyl)-N2-(1-isopropyl-5-methyl-1H-pyrazol-4-yl)-7H-pyrrolo[2,3-d]pyrimidine-2,4-diamine] | 0.043 µM | 0.042 µM |
| Cc1cc(Nc2nc(N[C@@H](C)C3CC3)c3nc[nH]c3n2)nn1C(C)C [Compound 60, (S)-N6-(1-cyclopropylethyl)-N2-(1-isopropyl-5-methyl-1H-pyrazol-3-yl)-9H-purine-2,6-diamine] | 0.065 µM | 0.032 µM |
| C[C@H](Nc1nc(Nc2cn([C@@H](C)CO)nn2)nc2[nH]ccc12)C1CC1 [Compound 58, (S)-2-(4-((4-(((S)-1-cyclopropylethyl)amino)-7H-pyrrolo[2,3-d]pyrimidin-2-yl)amino)-1H-1,2,3-triazol-1-yl)propan-1-ol] | 0.101 µM | 0.072 µM |
| C[C@H](Nc1nc(Nc2cnn(C3CCN(C)CC3)c2)nc2[nH]ccc12)C1CC1 [Compound 31, (S)-N4-(1-cyclopropylethyl)-N2-(1-(1-methylpiperidin-4-yl)-1H-pyrazol-4-yl)-7H-pyrrolo[2,3-d]pyrimidine-2,4-diamine] | 0.023 µM | 0.02 µM |
| COCCn1cc(Nc2nc(N[C@@H](C)C3CC3)c3cc[nH]c3n2)cn1 [Compound 32, (S)-N4-(1-cyclopropylethyl)-N2-(1-(2-methoxyethyl)-1H-pyrazol-4-yl)-7H-pyrrolo[2,3-d]pyrimidine-2,4-diamine] | 0.011 µM | 0.011 µM |
| Cc1cc(Nc2nc(N[C@@H](C)C3CC3)c3cc[nH]c3n2)n[nH]1 [Compound 36, (S)-N4-(1-cyclopropylethyl)-N2-(5-methyl-1H-pyrazol-3-yl)-7H-pyrrolo[2,3-d]pyrimidine-2,4-diamine] | 0.044 µM | 0.038 µM |
| CCn1cc(Nc2nc(N[C@@H](C)C3CC3)c3cc[nH]c3n2)cn1 [Compound 29] | 0.017 µM | 0.012 µM |
| CC(C)n1cc(Nc2nc(N[C@@H](C)c3ccccn3)c3cc[nH]c3n2)cn1 [Compound 35, (S)-N2-(1-isopropyl-1H-pyrazol-4-yl)-N4-(1-(pyridin-2-yl)ethyl)-7H-pyrrolo[2,3-d]pyrimidine-2,4-diamine] | 0.097 µM | 0.066 µM |
| CC(C)n1cc(Nc2nc(N(C)[C@@H](C)C3CC3)c3cc[nH]c3n2)cn1 [Compound 48, (S)-N4-(1-cyclopropylethyl)-N2-(1-isopropyl-1H-pyrazol-4-yl)-N4-methyl-7H-pyrrolo[2,3-d]pyrimidine-2,4-diamine] | 0.044 µM | 0.019 µM |
| CC(C)n1ccc(Nc2nc(N[C@@H](C)C3CC3)c3nc[nH]c3n2)n1 [Compound 59, (S)-N6-(1-cyclopropylethyl)-N2-(1-isopropyl-1H-pyrazol-3-yl)-9H-purine-2,6-diamine] | 0.115 µM | 0.051 µM |
| C[C@H](Nc1nc(Nc2cnn(C)c2)nc2[nH]ccc12)C1CC1 [Compound 28, (S)-N4-(1-cyclopropylethyl)-N2-(1-methyl-1H-pyrazol-4-yl)-7H-pyrrolo[2,3-d]pyrimidine-2,4-diamine] | 0.03 µM | 0.02 µM |
| C[C@H](Nc1nc(Nc2cnn(C)c2)nc2[nH]cnc12)C1CC1 [Compound 9, (S)-N6-(1-cyclopropylethyl)-N2-(1-methyl-1H-pyrazol-4-yl)-9H-purine-2,6-diamine] | 0.1 µM | 0.038 µM |
| Cn1cc(Nc2nc(NC3CCC3)c3cc[nH]c3n2)cn1 [Compound 7, N4-cyclobutyl-N2-(1-methyl-1H-pyrazol-4-yl)-7H-pyrrolo[2,3-d]pyrimidine-2,4-diamine] | 0.019 µM | 0.008 µM |
| COCC(C)n1cc(Nc2nc(N(C)[C@@H](C)C3CC3)c3cc[nH]c3n2)cn1 (stereo partly drawn) [Compound 49, N4-((S)-1-cyclopropylethyl)-N2-(1-(1-methoxypropan-2-yl)-1H-pyrazol-4-yl)-N4-methyl-7H-pyrrolo[2,3-d]pyrimidine-2,4-diamine] | 0.069 µM | 0.027 µM |
